# How the values were obtained:
# ICE = biological target: T1, ICE (Homo sapiens, UniProt P29466); assay: Enzyme assay with UV-visible substrate (ICE inhibition); type: biochemical; conditions: Succinyl-Tyr-Val-Ala-Asp-p-Nitroanilide substrate
# T1 sequence (P29466 120-297 limits assumed): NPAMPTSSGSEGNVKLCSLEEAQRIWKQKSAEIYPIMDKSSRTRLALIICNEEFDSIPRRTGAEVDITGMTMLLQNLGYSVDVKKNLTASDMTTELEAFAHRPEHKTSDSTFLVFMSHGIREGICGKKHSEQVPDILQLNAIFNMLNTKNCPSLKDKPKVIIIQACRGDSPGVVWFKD
# T1 sequence (P29466 317-404 limits assumed): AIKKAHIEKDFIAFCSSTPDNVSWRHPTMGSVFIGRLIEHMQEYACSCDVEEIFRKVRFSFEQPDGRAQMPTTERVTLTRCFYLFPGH
# Method: 1. Enzyme Assay with UV-visible Substrate
# This assay is run using an Succinyl-Tyr-Val-Ala-Asp-p-Nitroanilide substrate. Synthesis of analogous substrates is described by L. A. Reiter (Int. J. Peptide Protein Res., 43, pp. 87-96 (1994)). The assay mixture contains:
# 65 μl buffer (10 mM Tris, 1 mM DTT, 0.1% CHAPS @ pH 8.1)
# 10 μl ICE (50 nM final concentration to give a rate of ˜1 mOD/min)
# 5 μl DMSO/Inhibitor mixture
# 20 μl 400 μM Substrate (80 μM final concentration)
# 100 μl total reaction volume
# The visible ICE assay is run in a 96-well microtiter plate. Buffer, ICE and DMSO (if inhibitor is present) are added to the wells in the order listed. The components are left to incubate at room temperature for 15 minutes starting at the time that all components are present in all wells. The microtiter plate reader is set to incubate at 37° C. After the 15 minute incubation, substrate is added directly to the wells and the reaction is monitored by following the release of the chromophore (pNA) at 405-603 nm at 37° C. for 20 minutes. A linear fit of the data is performed and the rate is calculated in mOD/min. DMSO is only present during experiments involving inhibitors, buffer is used to make up the volume to 100 μl in the other experiments.
# For determination of enzyme inhibition constants (Ki) or the mode of inhibition (competitive, uncompetitive or noncompetitive), the rate data determined in the enzyme assays at varying inhibitor concentrations are computer-fit to standard enzyme kinetic equations (see I. H. Segel, Enzyme Kinetics, Wiley-Interscience, 1975).
# [1] = system: IL-1β production in human whole blood; assay: Whole blood assay for IL-1β production; type: cell-based; conditions: LPS-stimulated human whole blood, IL-1β by ELISA
# Method: Whole Blood Assay for IL-1β Production
# The whole blood assay is a simple method for measuring the production of IL-1β (or other cytokines) and the activity of potential inhibitors. The complexity of this assay system, with its full complement of lymphoid and inflammatory cell types, spectrum of plasma proteins and red blood cells is an ideal in vitro representation of human in vivo physiologic conditions.
# Set incubator or water bath at 30° C. Aliquot 0.25 ml of blood into 1.5 ml eppendorf tubes. Note: be sure to invert the whole blood sample tubes after every two aliquots. Differences in replicates may result if the cells sediment and are not uniformly suspended. Use of a positive displacement pipette will also minimize differences between replicate aliquots.
# Prepare drug dilutions in sterile pyrogen-free saline by serial dilution. A dilution series which brackets the apparent Ki for a test compound determined in an ICE inhibition assay is generally used for the primary compound screen. For extremely hydrophobic compounds, prepare compound dilutions in fresh plasma obtained from the same blood donor or in PBS-containing 5% DMSO to enhance solubility.
# Add 25 μl test compound dilution or vehicle control and gently mix the sample. Then add 5.0 μl LPS solution (250 ng/ml stocked prepared fresh: 5.0 ng/ml final concentration LPS), and mix again. Incubate the tubes at […] in a water bath for 16-18 hr with occasional mixing. Alternatively, the tubes can be placed in a rotator set at 4 rpm for the same incubation period. This assay should be set up in duplicate or triplicate with the following controls: negative control—no LPS; positive control—no test inhibitor; vehicle control—the highest concentration of DMSO or compound solvent used in the experiment. Additional saline is added to all control tubes to normalize volumes for both control and experimental whole blood test samples.
# After the incubation period, whole blood samples are centrifuged for 10 minutes at ˜2000 rpm in the microfuge, plasma is transferred to a fresh microfuge tube and centrifuged at 1000×g to pellet residual platelets if necessary. Plasma samples may be stored frozen at −70° C. prior to assay for cytokine levels by ELISA.
# R & D Systems (614 McKinley Place N.E. Minneapolis, Minn. 55413) Quantikine kits may be used for measurement of IL-1β and TNF-α. The assays are performed according to the manufacturer's directions. IL-1β levels of ˜1-5 ng/ml in positive controls among a range of individuals may be observed. A 1:200 dilution of plasma for all samples is usually sufficient for experiments for ELISA results to fall on the linear range of the ELISA standard curves. It may be necessary to optimize standard dilutions if you observe differences in the whole blood assay. Nerad, J. L. et al., J. Leukocyte Biol., 52, pp. 687-692 (1992).
# [2] = system: mature IL-1β in human PBMC; assay: PBMC cell assay (IL-1β assay with human peripheral blood mononuclear cells); type: cell-based; conditions: LPS-stimulated human PBMC, mature IL-1β by ELISA
# From the text: IL-1β Assay with a Mixed Population of Human Peripheral Blood Mononuclear Cells (PBMC) or Enriched Adherent Mononuclear Cells
# Processing of pre-IL-1β by ICE can be measured in cell culture using a variety of cell sources. Human PBMC obtained from healthy donors provides a mixed population of lymphocyte subtypes and mononuclear cells that produce a spectrum of interleukins and cytokines in response to many classes of physiological stimulators. Adherent mononuclear cells from PBMC provides an enriched source of normal monocytes for selective studies of cytokine production by activated cells.
# An initial dilution series of test compound in DMSO or ethanol is prepared, with a subsequent dilution into RPMI-10% FBS media (containing 2 mM L-glutamine, 10 mM HEPES, 50 U and 50 ug/ml pen/strep) respectively to yield drugs at 4×the final test concentration containing 0.4% DMSO or 0.4% ethanol. The final concentration of DMSO is 0.1% for all drug dilutions. A concentration titration which brackets the apparent Ki for a test compound determined in an ICE inhibition assay is generally used for the primary compound screen.
# Generally 5-6 compound dilutions are tested and the cellular component of the assay is performed in duplicate, with duplicate ELISA determinations on each cell culture supernatant.
# Buffy coat cells isolated from one pint human blood (yielding 40-45 ml final volume plasma plus cells) are diluted with media to 80 ml and LeukoPREP separation tubes (Becton Dickinson) are each overlaid with 10 ml of cell suspension. After 15 min centrifugation at 1500-1800×g, the plasma/media layer is aspirated and then the mononuclear cell layer is collected with a Pasteur pipette and transferred to a 15 ml conical centrifuge tube (Corning). Media is added to bring the volume to 15 ml, gently mix the cells by inversion and centrifuge at 300×g for 15 min. The PBMC pellet is resuspended in a small volume of media, the cells are counted and adjusted to 6×10^6 cells/ml.
# For the cellular assay, 1.0 ml of the cell suspension is added to each well of a 24-well flat bottom tissue culture plate (Corning), 0.5 ml test compound dilution and 0.5 ml LPS solution (Sigma #L-3012; 20 ng/ml solution prepared in complete RPMI media; final LPS concentration 5 ng/ml). The 0.5 ml additions of test compound and LPS are usually sufficient to mix the contents of the wells. Three control mixtures are run per experiment, with either LPS alone, solvent vehicle control, and/or additional media to adjust the final culture volume to 2.0 ml. The cell cultures are incubated for 16-18 hr at 37° C. in the presence of 5% CO2.
# At the end of the incubation period, cells are harvested and transferred to 15 ml conical centrifuge tubes. After centrifugation for 10 min at 200×g, supernatants are harvested and transferred to 1.5 ml Eppendorf tubes. It may be noted that the cell pellet may be utilized for a biochemical evaluation of pre-IL-1β and/or mature IL-1β content in cytosol extracts by Western blotting or ELISA with pre-IL-1β specific antisera.
# PBMC are isolated and prepared as described above. Media (1.0 ml) is first added to wells followed by 0.5 ml of the PBMC suspension. After a one hour incubation, plates are gently shaken and nonadherent cells aspirated from each well. Wells are then gently washed three times with 1.0 ml of media and final resuspended in 1.0 ml media. The enrichment for adherent cells generally yields 2.5-3.0×10^5 cells per well. […]
# [3] = In vivo bioavailability determination (oral dosing to rats); conditions: rat
# Method: In vivo Bioavailability Determination
# The drugs (10-100 mg/kg) were dosed orally to rats (10 mL/kg) in ethanol/PEG/water, β-cyclodextrin, labrosol/water or cremophor/water. Blood samples were drawn from the carotid artery at 0.25, 0.50, 1, 1.5, 2, 3, 4, 6, and 8 hours after dosing, centrifuged to separate plasma and stored at −70° C. until analyzed. Aldehyde concentrations were determined using HPLC/MS. Pharmacokinetic analysis of data was performed by non-linear regression using RStrip (MicroMath Software, UT). Drug availability values may be determined as follows: (AUC of drug after oral prodrug dosing/AUC of drug after i.v. dosing of drug)×(dose i.v./dose p.o.)×100%.
# IL-1β = assay: LPS-induced IL-1β production in mice; type: in vivo, mouse; conditions: PO @ 100 mg/kg, compound given 1 hour relative to LPS challenge
# Method: In vivo Acute Assay for Efficacy as Anti-inflammatory Agent
# LPS-Induced IL-1β Production
# Efficacy is evaluated in CD1 mice (n is 6 per condition, for example) challenged with LPS (20 mg/kg IP). The test compounds are prepared in olive oil:DMSO:ethanol (90:5:5) and administered by IP injection one hour after LPS. Blood is collected seven hours after LPS challenge. Serum IL-1β levels are measured by ELISA.
# Compounds may also be administered by oral gavage to assess absorption.
# We obtained inhibition data in Table 5 using the methods described in Example 12. Efficacy for Prodrugs in LPS-Induced IL-1β Production in Mice. Time of compound administration relative to time of LPS challenge was 1 hour. Dose of compound was PO @ 100 mg/kg.
Compound,Ki (ICE) [nM],IC50 [1] [µM],IC50 [2] [nM],blood levels of drug when dosed orally ([3]; oral prodrug dosing),"Cmax ([3]; oral, dose 50 mg/kg, aldehyde (drug) concentration after prodrug dosing) [µg/mL]",% Inhibition of IL-1β (IL-1β) [%]
O=C[C@H](CC(=O)O)NC(=O)CN1C(=O)[C@@H](NC(=O)c2nccc3ccccc23)COc2ccccc21 [Compound 6a],22,> 20,1000,,,
O=C[C@H](CC(=O)O)NC(=O)CN1C(=O)[C@@H](NC(=O)c2c[nH]c3ccccc23)COc2ccccc21 [Compound 6c],20,> 20,650,,,
"Cc1cc(C(=O)N[C@H]2CSc3ccccc3N(CC(=O)N[C@H](C=O)CC(=O)O)C2=O)cc(C)c1O [Compound 11a, (3S)-3-[(3S)-3-(3,5-Dimethyl-4-hydroxybenzoyl)amino-4-oxo-2,3,4,5-tetrahydro-5H-1,5-benzothiazepine-5-acetylamino]-4-oxo-butyric acid]",7.5,8.8,,,,
O=C[C@H](CC(=O)O)NC(=O)CN1C(=O)[C@@H](NC(=O)c2nccc3ccccc23)CSc2ccccc21 [Compound 11b],14,19,800,,,
"Cc1cc(C(=O)N[C@H]2CC(=O)c3ccccc3N(CC(=O)N[C@H](C=O)CC(=O)O)C2=O)cc(C)c1O [Compound 17a, (3S)-3-[(3S)-2,5-Dioxo-3-(3,5-dimethyl-4-hydroxybenzoyl)amino-2,3,4,5-tetrahydro-1H-1-benzazepine-1-acetylamino]-4-oxo-butyric acid]",12,3.2,,,,
"O=C[C@H](CC(=O)O)NC(=O)CN1C(=O)[C@@H](NC(=O)c2nccc3ccccc23)CC(=O)c2ccccc21 [Compound 17b, (3S)-3-[(3S)-2,5-Dioxo-3-(isoquinolin-1-oyl)amino-2,3,4,5-tetrahydro-1H-1-benzazopine-1-acetylamino]-4-oxo-butyric acid.]",45,> 20,1720,,,
O=C[C@H](CC(=O)O)NC(=O)CN1C(=O)[C@@H](NC(=O)c2nccc3ccccc23)CS(=O)(=O)c2ccccc21 [Compound 19a],140,9.5,770,,,
"(3S)-2,5-Dioxo-3-(Isoquinolin-3-oyl)amino-2,3,4,5-tetrahyo-1H-1-benzazepine-N-((2RS, 3S)-2-benzyloxy-5-oxo-tetrahydrofuran-3-yl)-1-acetamide [Compound 16b]",,,,significant blood levels of drug,6.1,53
"(3S)-3-(Isoquinolin-1-oyl)amino-4-oxo-2,3,4,5-tetrahydo-5H-1,5-benzothiazepine-N-((2RS, 3S)-2-benzyloxy-5-oxo-tetrahydrofuran-3-yl)-5-acetamide [Compound 10b]",,,,,,74
"(3S)-3-(Isoquinolin-1-oyl)amino-4-oxo-2,3,4,5-tetrahydro-5H-1,5-benzoxazepine-N-[(2RS, 3S)-2-benzyloxy-5-oxo-tetrahydrofuran-3-yl]-5-acetamide [Compound 5a]",,,,,,58
